# Measurements from patent US20170283440A1, “CARM1 INHIBITORS AND USES THEREOF” (Epizyme, Inc., priority 2014, published 2017).
# System: asymmetric di-methyl PABP1 in RKO cells
# Assay: RKO methylation assay (In Cell Western for asymmetric di-methyl PABP1)
# Type: cell-based
# Details: 48 hours incubation, read-out: Cellular IC50
# Source text: RKO adherent cells were purchased from ATCC (American Type Culture Collection), Manassas, Va., USA. DMEM/Glutamax medium, penicillin-streptomycin, heat inactivated fetal bovine serum, 0.05% trypsin and D-PBS were purchased from Life Technologies, Grand Island, N.Y., USA. Odyssey blocking buffer, 800CW goat anti-rabbit IgG (H+L) antibody, and Licor Odyssey infrared scanner were purchased from Licor Biosciences, Lincoln, Nebr., USA. Asymmetric di-methyl PABP1 antibody was purchased from Cell Signaling Technology, Danvers, Mass., USA. Methanol was purchased from VWR, Franklin, Mass., USA. 10% Tween 20 was purchased from KPL, Inc., Gaithersburg, Md., USA. Paraformaldehyde (PFA) was purchased from EM Sciences. DRAQ5 was purchased from Biostatus Limited, Leicestershire, UK.
# RKO adherent cells were maintained in growth medium (DMEM/Glutamax medium supplemented with 10% v/v heat inactivated fetal bovine serum and 100 units/mL penicillin-streptomycin) and cultured at 37° C. under 5% CO2.
# Compound (100 nL) from a 96-well source plate was added directly to 384 well cell plate. Plates were incubated at 37° C., 5% CO2 for 48 hours. After two days of incubation, plates were brought to room temperature outside of the incubator for ten minutes and blotted on paper towels to remove cell media. Cells were fixed for 20 minutes at room temperature by adding 50 ul of 8% PFA followed by aspiration of supernatant with the Biotek EL406 plate washer. Cells were then permeabilized by addition of 50 μL of ice cold 100% methanol directly to each well and incubated for 30 min at room temperature. After 30 min, plates were transferred to a Biotek EL406 plate washer and washed 2 times with 100 μL per well of wash buffer (IX PBS). Next 60 μL per well of Odyssey blocking buffer (Odyssey Buffer with 0.1% Tween 20 (v/v)) were added to each plate and incubated 1 hour at room temperature. Blocking buffer was removed and 20 μL per well of primary antibody was added (asymmetric-methyl PABP1) diluted 1:400 in Odyssey buffer with 0.1% Tween 20 (v/v)) and plates were incubated overnight (16 hours) at 4° C. Plates were washed 5 times with 100 μL per well of wash buffer. Next 20 μL per well of secondary antibody was added (1:800 800CW goat anti-rabbit IgG (H+L) antibody, 1:2000 DRAQ5 in Odyssey buffer with 0.1% Tween 20 (v/v)) and incubated for 1 hour at room temperature. The plates were washed 5 times with 100 μL per well wash buffer then 2 times with 100 μL per well of water. Plates were allowed to dry at room temperature then imaged on the Licor Odyssey machine which measures integrated intensity at 700 nm and 800 nm wavelengths. Both 700 and 800 channels were scanned.
# First, the ratio for each well was determined by:
# Each plate included fourteen control wells of DMSO only treatment (minimum inhibition) as well as fourteen control wells for maximum inhibition treated with 20 μM of a reference compound. The average of the ratio values for each control type was calculated and used to determine the percent […] for each test well in the plate. Reference compound was serially diluted three-fold in DMSO for a total of nine test concentrations, beginning at 20 μM.
# Percent inhibition was determined and IC50 curves were generated using triplicate wells per concentration of compound.
row,IC50 [µM],Structure (SMILES)
1,10 to 20,CC(C)n1ncc2c(N3CCOCC3)cc(-c3cccc(OCC(O)CN)c3)nc21 (stereo not shown) [Example 11-1]

# Same assay, conditions: Homo sapiens, 48 hours incubation, read-out: Cellular IC50
row,Structure (SMILES),IC50 [µM]
1,CNCC(O)COc1cccc(-c2cc(NC(=O)N(C)C)c3cnn(C(C)C)c3n2)c1 (stereo not shown) [Example 21-1],> 20
2,Cc1c(CNc2cc(-c3cccc(OCC(O)CN)c3)nc3c2cnn3C(C)C)cnn1C (stereo not shown) [Example 37-1],> 20
3,CNCC(O)COc1cccc(-c2cc(NCC(=O)OC)c3cnn(C(C)C)c3n2)c1 (stereo not shown) [Example 23-1],> 20
4,CNCC(O)COc1cccc(-c2cc(N(C)C3CCOC3)n3ncc(C(C)C)c3n2)c1 (stereo not shown) [Example 14-6],> 20
5,CNCC(O)COc1cccc(-c2cc(N3CCOCC3)c3cnn(C(C)C)c3n2)c1 (stereo not shown) [Example 20-1],> 20
6,CNCC(O)COc1cccc(-c2cc(NCCCCCNC(=O)c3cccnc3)c3cnn(C(C)C)c3n2)c1 (stereo not shown) [Example 63-1],> 20
7,CNCC(O)COc1cccc(-c2cc(NC)c3cnn(C(C)C)c3n2)c1 (stereo not shown) [Example 22-9],> 20
8,CNCC(O)COc1cccc(-c2cc(NC(=O)NC3CCOCC3)c3cnn(C(C)C)c3n2)c1 (stereo not shown) [Example 2-1],> 20
9,CC(C)n1ncc2c(NCc3cccc(O)c3)cc(-c3cccc(OCC(O)CN)c3)nc21 (stereo not shown) [Example 35-1],> 20
10,CNCC(O)COc1cccc(-c2cc(NCCNC(=O)c3cccnc3)c3cnn(C(C)C)c3n2)c1 (stereo not shown) [Example 56-1],> 20
11,CNCC(O)COc1cccc(-c2cc(NCCCNC(=O)c3ccn(C)n3)c3cnn(C(C)C)c3n2)c1 (stereo not shown) [Example 60-1],> 20
12,CNCC(O)COc1cccc(-c2cc(NC3CC3)c3cnn(C(C)C)c3n2)c1 (stereo not shown) [Example 18-9],> 20
13,CNCC(O)COc1cccc(-c2cc(NCc3cnc4ccccn34)c3cnn(C(C)C)c3n2)c1 (stereo not shown) [Example 53-1],> 20
14,CC(C)n1ncc2c(NC(=O)OCc3ccccc3)cc(-c3cccc(OCC(O)CN)c3)nc21 (stereo not shown) [Example 51-1],> 20
15,CC(C)n1ncc2c(NC(=O)NC3CCOCC3)cc(-c3cccc(OCC(O)CN)c3)nc21 (stereo not shown) [Example 49-1],> 20
16,CNCC(O)COc1cccc(-c2cc(N[C@H]3CO[C@@H]4OCC[C@@H]43)c3cnn(C(C)C)c3n2)c1 (stereo partly shown) [Example 47-1],> 20

row,Structure (SMILES),IC50 [µM]
1,CNCC(O)COc1cccc(-c2cc(NCCCCCCN)c3cnn(C(C)C)c3n2)c1 (stereo not shown) [Example 43-1],> 20
2,CC(C)n1ncc2c(NC(=O)N(C)C)cc(-c3cccc(OCC(O)CN)c3)nc21 (stereo not shown) [Example 14-1],> 20
3,CC(C)n1ncc2c(N(C)CC3CCOCC3)cc(-c3cccc(OCC(O)CN)c3)nc21 (stereo not shown) [Example 42-1],> 20
4,CNC(=O)Nc1cc(-c2cccc(OCC(O)CN)c2)nc2c1cnn2C(C)C (stereo not shown) [Example 8-1],> 20
5,CNCC(O)COc1cccc(-c2cc(NCCCNC(=O)c3cccnc3)c3cnn(C(C)C)c3n2)c1 (stereo not shown) [Example 59-1],> 20
6,CC(C)n1ncc2c(NCc3cccnc3)cc(-c3cccc(OCC(O)CN)c3)nc21 (stereo not shown) [Example 25-1],> 20
7,CCOC(=O)Nc1cc(-c2cccc(OCC(O)CN)c2)nc2c1cnn2C(C)C (stereo not shown) [Example 17-1],> 20
8,CC(C)n1ncc2c(NCc3ccncc3)cc(-c3cccc(OCC(O)CN)c3)nc21 (stereo not shown) [Example 26-1],> 20
9,CNCC(O)COc1cccc(-c2cc(NCCN)c3cnn(C(C)C)c3n2)c1 (stereo not shown) [Example 9-1],> 20
10,CC(C)n1ncc2c(NC3CC3)cc(-c3cccc(OCC(O)CN)c3)nc21 (stereo not shown) [Example 15-9],> 20
11,COc1nc(C)cc(C)c1CNc1cc(-c2cccc(OCC(O)CN)c2)nc2c1cnn2C(C)C (stereo not shown) [Example 55-1],> 20
12,CNCC(O)COc1cccc(-c2cc(NCCNC(=O)c3ccn(C)n3)c3cnn(C(C)C)c3n2)c1 (stereo not shown) [Example 58-1],> 20
13,CNCC(O)COc1cccc(-c2cc(NC(=O)OCc3ccccc3)c3cnn(C(C)C)c3n2)c1 (stereo not shown) [Example 54-1],> 20
14,CC(C)n1ncc2c(NC3CCOCC3)cc(-c3cccc(OCC(O)CN)c3)nc21 (stereo not shown) [Example 19-1],> 20
15,CNCC(O)COc1cccc(-c2cc(NCC3CCOCC3)c3cnn(C(C)C)c3n2)c1 (stereo not shown) [Example 41-1],> 20
16,CNCC(O)COc1cccc(-c2cc(Nc3ccccn3)c3cnn(C(C)C)c3n2)c1 (stereo not shown) [Example 24-1],> 20

# Now from value to compound:
row,IC50 [µM],Structure (SMILES)
1,10 to 20,CNCC(O)COc1cccc(-c2cc(NC3CCOCC3)c3cnn(C(C)C)c3n2)c1 (stereo not shown) [Example 29-1]
2,> 20,COC(=O)CNc1cc(-c2cccc(OCC(O)CN)c2)nc2c1cnn2C(C)C (stereo not shown) [Example 16-9]
3,> 20,CNCC(O)COc1cccc(-c2cc(NCCCCCN)c3cnn(C(C)C)c3n2)c1 (stereo not shown) [Example 32-1]
4,> 20,CNCC(O)COc1cccc(-c2cc(N3CCC(C(=O)OC)CC3)c3cnn(C(C)C)c3n2)c1 (stereo not shown) [Example 52-1]
5,> 20,CNCC(O)COc1cccc(-c2cc(NCCCCNC(=O)c3ccn(C)n3)c3cnn(C(C)C)c3n2)c1 (stereo not shown) [Example 62-1]
6,> 20,CC(C)n1ncc2c(N3CCOCC3)cc(-c3cccc(OC[C@@H](O)CN)c3)nc21 [Example 12-1]
7,10 to 20,CC(C)n1ncc2c(N3CCOCC3)cc(-c3cccc(OCC(O)CN)c3)nc21 (stereo not shown) [Example 3-1]
8,10 to 20,CNCC(O)COc1cccc(-c2cc(NC(=O)OC)c3cnn(C(C)C)c3n2)c1 (stereo not shown) [Example 16-1]
9,> 20,COC(=O)Nc1cc(-c2cccc(OCC(O)CN)c2)nc2c1cnn2C(C)C (stereo not shown) [Example 10-1]
10,> 20,CNCC(O)COc1cccc(-c2cc(NCCCCNC(=O)c3cccnc3)c3cnn(C(C)C)c3n2)c1 (stereo not shown) [Example 61-1]
11,> 20,CC(C)n1ncc2c(N[C@H]3CO[C@@H]4OCC[C@@H]43)cc(-c3cccc(OCC(O)CN)c3)nc21 (stereo partly shown) [Example 38-1]
12,> 20,CC(C)n1ncc2c(NCc3cnc4ccccn34)cc(-c3cccc(OCC(O)CN)c3)nc21 (stereo not shown) [Example 50-1]
13,> 20,CNCC(O)COc1cccc(-c2cc(NCCCCN)c3cnn(C(C)C)c3n2)c1 (stereo not shown) [Example 22-1]
14,> 20,CC(C)n1ncc2c(NCC3CCOCC3)cc(-c3cccc(OCC(O)CN)c3)nc21 (stereo not shown) [Example 30-1]
15,> 20,CNCC(O)COc1cccc(-c2cc(NCCCN)c3cnn(C(C)C)c3n2)c1 (stereo not shown) [Example 15-1]
16,10 to 20,CNCC(O)COc1cccc(-c2cc(N(C)CC3CCOCC3)c3cnn(C(C)C)c3n2)c1 (stereo not shown) [Example 48-1]
17,10 to 20,CNCC(O)COc1cccc(-c2cc(NCCCCCCNC(=O)c3cccnc3)c3cnn(C(C)C)c3n2)c1 (stereo not shown) [Example 65-1]
18,5 to 10,CNCC(O)COc1cccc(-c2cc(N(C)C3CCOCC3)c3cnn(C(C)C)c3n2)c1 (stereo not shown) [Example 40-1]
19,10 to 20,CNCC(O)COc1cccc(-c2cc(NCc3ccccn3)c3cnn(C(C)C)c3n2)c1 (stereo not shown) [Example 34-1]
20,10 to 20,CNCC(O)COc1cccc(-c2cc(N(C)c3ccccn3)c3cnn(C(C)C)c3n2)c1 (stereo not shown) [Example 33-1]
21,10 to 20,CC(C)n1ncc2c(N(C)C3CCOCC3)cc(-c3cccc(OCC(O)CN)c3)nc21 (stereo not shown) [Example 28-1]
22,10 to 20,CNCC(O)COc1cccc(-c2cc(NCc3cnn(C)c3C)c3cnn(C(C)C)c3n2)c1 (stereo not shown) [Example 46-1]
